# Measurements: patent US20230406812A1, “NOVEL AMINOAROMATIC COMPOUND OR PHARMACEUTICALLY ACCEPTABLE SALT THEREOF, AND PHARMACEUTICAL COMPOSITION FOR PREVENTING OR TREATING NEURODEGENERATIVE DISEASES COMPRISING SAME AS ACTIVE INGREDIENT” (INSTITUTE FOR BASIC SCIENCE, priority 2020, published 2023)
# How the values were obtained:
# [1] = system: APP/PS1 mouse hippocampus cells; experiment: Electrophysiology experiment (tonic GABA); assay type: in vivo; details: 3 mg/kg/day or 10 mg/kg/day
# Description: The Alzheimer's animal model of Experimental Example 5 was used to confirm the influence of astrocytes and the mechanism causing memory impairment in dementia through an electrophysiology experiment.
# Therefore, in the present experimental example, each of the APP/PS1 mouse as the Alzheimer's animal model, the APP/PS1 mouse treated with 3 mg/kg/day or 10 mg/kg/day, respectively, of the aminoaromatic compound of the present invention, KDS12025 (Example 21), and a healthy normal mouse (wild type, WT) was anesthetized, and brain tissues were obtained therefrom to measure an electrical signal of living hippocampus cells. Thus, the tonic GABA which inhibits neurotransmission in a brain cell was measured. The results are illustrated in FIG. 8.
# [2] = Blood brain barrier (BBB) permeability analysis (PAMPA); assay type: in vitro ADME
# Description: Based on J Med Chem. 2001 Mar. 15; 44 (6):923-30., an artificial blood brain barrier (BBB) was produced by a parallel artificial membrane permeability assay (PAMPA), and the permeability of the drug was assessed.
# hemoglobin (Hb) = hemoglobin (Hb) (Homo sapiens, UniProt P68871+P69905); experiment: Hydrogen peroxide scavenging ability with hemoglobin (Amplex Red H2O2 assay); assay type: biochemical; details: 10 μM H2O2, 80 μg/ml hemoglobin, 37° C. about 30 minutes
# Description: Amplex Red is a means which turns into a fluorescent substance called resorufin when horse radish peroxidase (HRP) and H2O2 exist together and allows measurement of changes in H2O2, that is, H2O2 assay. […] The experiment was performed by adding hemoglobin instead of HRP to the H2O2 assay by Amplex Red (FIG. 1). The final concentration of each substance was 10 μM of H2O2 and 80 μg/ml of hemoglobin, and the aminoaromatic compound of the present invention was treated by concentration. After the reaction at 37° C. for about 30 minutes as such, fluorescence (excitation: 540 nm, emission: 580 nm) was measured by a microplate reader. At this time, it can be said that fluorescence is proportional to the amount of H2O2. Normalization was performed for each concentration based on a fluorescence value without a drug, and a value at which the fluorescence value was 50%, that is, a half maximal effective concentration (EC50) was determined by a program through statistical processing. The results are shown in the following Table 2, and AAD-2004 was used as a control group.
# APP/PS1 mouse [3] = experiment: Passive avoidance test (PAT) I; assay type: in vivo; details: 3 mg/kg/day IP for 16 days
# Description: A passive avoidance test is an experiment to check the memory of animals, in which a weak electric stimulation was given in a dark room and it was assessed whether the animal remembered the electrical stimulation.
# Since mice preferred a dark room, they have a tendency to move quickly to a dark room when they are in a bright room. […] A time to move from a bright room to a dark room (latency to dark room, sec) was measured, thereby measuring memory of a combination of the electrical stimulation and the dark room. An APP/PS1 mouse which is used as an Alzheimer's animal model was used to perform the passive avoidance test (FIG. 4). A wild type (WT) mouse was used as a control group.
# (§1) On the first day of PAT, as an acquisition session, the mouse was allowed to stay in a bright room, and after a certain time, a dark room was opened and a time for the mouse to enter the dark room was measured. When the mouse entered the dark room, an electrical shock (0.5 mA, 2 sec) was given by a foothold. On the second day, as a retrieval session, the mouse was placed in a bright room, and a time for the mouse to enter a dark room was measured. At this time, the door of the dark room was opened first.
# The APP/PS1 dementia mouse was intraperitoneally injected with the aminoaromatic compound of the present invention (KDS12008 (Example 1), KDS12017 (Example 16), or KDS12025 (Example 21)) (KDS12008 (Example 1) 30 mg/kg/day (30 mpk); KDS12017 (Example 16) 30 mg/kg/day (30 mpk); KDS12025 (Example 21) 3 mg/kg/day (3 mpk)) for 16 days (intraperitoneal injection, IP).
# [4] = system: APP/PS1+GiD Alzheimer's model mouse (APP+DTR); experiment: Novel place recognition experiment; assay type: in vivo; details: 3 mg/kg/day i.p.
# Description: The cognitive function related to hippocampus was assessed by a novel place recognition experiment to confirm the cognitive impairment and recovery. The same objects were put for a certain period of time for interaction, and after one hour, the position of only one object was changed. When having a normal cognitive function, a past memory is maintained to grow interest in a new object, but when having cognitive impairment, a new place is not determined. At this time, as an animal model, an APP/PS1+GiD Alzheimer's mode mouse which is a more closely developed model mouse to the phenomenon shown in the Alzheimer's dementia patient was used. The APP/PS1+GiD Alzheimer's model mouse was produced referring to Nature Neuroscience 23, 1555-1566 (2020).
# In the present experiment, APP/PS1+GiD was produced by injecting AAV-GFAP104-DTR-GFP virus into the hippocampus of the APP/PS1 mouse, and hereinafter, is referred to as “APP+DTR”. In addition, the product obtained by injecting AAV-GFAP104-GFP virus into the hippocampus of the APP/PS1 mouse was referred to as “APP+GFP”. In addition, APP+DTR to which the aminoaromatic compound of the present invention, KDS12025 (Example 21) was administered was referred to as “APP+DTR+KDS12025”. […]
# [5] = system: APP/PS1 mouse hippocampus astrocytes (GFAP); experiment: Immunohistochemistry (IHC) II of brain tissue; assay type: in vivo
# Description: (§2) The brain of the Alzheimer's animal model of Experimental Example 3 was fixed with formaldehyde, and sliced into a small thickness. The amount of cells or specific protein in the sliced brain was measured with an image by histochemical staining. In the present experimental example, an antibody labeling an astrocyte was used to measure a change in astrocytes related to dementia. The results are illustrated in FIG. 5. That is, in the present experimental example, the hippocampus of the brain was histologically stained and a change in astrocytes around dementia substance amyloid beta was observed. Glial fibrillary acidic protein (GFAP) refers to astrocytes staining, 4′,6-diamidino-2-phenylindole (DAPI) marked cell nuclei and amyloid beta substance.
# The Alzheimer's animal model of Experimental Example 5 was used to perform histochemical staining of the brain tissue in the same manner as in Experimental Example 4, and the results are shown in FIG. 7.
# [6] = system: APP/PS1+GiD Alzheimer's model mouse (APP+DTR); experiment: Passive avoidance test (PAT) in APP/PS1+GiD mouse; assay type: in vivo
# Description: In the present experiment, APP/PS1+GiD was produced by injecting AAV-GFAP104-DTR-GFP virus into the hippocampus of the APP/PS1 mouse, and hereinafter, is referred to as “APP+DTR”. In addition, the product obtained by injecting AAV-GFAP104-GFP virus into the hippocampus of the APP/PS1 mouse was referred to as “APP+GFP”. In addition, APP+DTR to which the aminoaromatic compound of the present invention, KDS12025 (Example 21) was administered was referred to as “APP+DTR+KDS12025”. In addition, as the WT mouse, APP/PS1 and littermate were used, and the product obtained by injecting AAV-GFAP104-GFP virus into the hippocampus of the WT mouse was referred to as “WT+GFP” and the product obtained by injecting AAV-GFAP104-DTR-GFP virus into the hippocampus of the WT mouse was referred to as “WT+DTR”.
# In addition, as a result of PAT, the normal mouse (WT+GFP) remembered the dark room where it was given an electrical stimulation well and took a long time to enter the dark room.
# [7] = system: APP/PS1 mouse hippocampus astrocytes (GFAP); experiment: Immunohistochemistry (IHC) I of brain tissue, GFAP; assay type: in vivo; details: 3 mg/kg/day IP for 16 days
# Description: as §2
# WT mouse (C57BL/6 mouse) = experiment: Single toxicity assessment (lethal dose 50, LD50); assay type: in vivo
# Description: The aminoaromatic compound of the present invention, KDS12008 (Example 1), KDS12017 (Example 16), or KDS12025 (Example 21) was intraperitoneally injected at a single dose of 100, 300, and 1000 mg/kg, respectively, into a WT mouse at about 8 weeks of age (C57BL/6 mouse), and it was assessed whether the animal was dead.
# APP/PS1 mouse [8] = experiment: Passive avoidance test (PAT) II; assay type: in vivo
# Description: as §1
# 3 mg/kg/day (3 mpk) and 10 mg/kg/day (10 mpk) of the aminoaromatic compound of the present invention, KDS12025 (Example 21) was intraperitoneally injected into the APP/PS1 mouse which is used as an Alzheimer's animal model for one week, and the passive avoidance test was performed in the same manner as in Experimental Example 3. The results are illustrated in FIG. 6.
# Chain of hemoglobin (Hb) (P69905 2-142 limits assumed): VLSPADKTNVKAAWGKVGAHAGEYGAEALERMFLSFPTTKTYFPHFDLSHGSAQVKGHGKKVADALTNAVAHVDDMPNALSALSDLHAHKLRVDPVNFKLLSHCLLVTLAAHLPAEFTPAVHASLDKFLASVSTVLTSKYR
# Chain of hemoglobin (Hb) (P68871 2-147 limits assumed): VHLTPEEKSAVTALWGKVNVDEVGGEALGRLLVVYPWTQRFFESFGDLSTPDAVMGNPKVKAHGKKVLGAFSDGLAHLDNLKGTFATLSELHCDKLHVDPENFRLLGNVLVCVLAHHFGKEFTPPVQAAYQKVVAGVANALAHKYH
smiles,measurement,setting,value
CNc1ccc(NCCc2ccccc2OC)cc1 [Example 21],tonic GABA,[1],decreased tonic GABA
same,Papp at 50 μM,[2],67.4 ×10⁻⁶ cm/s
same,EC50,hemoglobin (Hb),60 nM
same,latency to dark room (impaired memory),APP/PS1 mouse [3],significantly recovered
same,cognitive function (novel place recognition),[4],recovered cognitive function
same,astrocytes (GFAP staining) in hippocampus,[5]; 3 mg/kg/day IP for one week,astrocytes returned to a healthy normal level
same,astrocytes (GFAP staining) in hippocampus,[5]; 10 mg/kg/day IP for one week,astrocytes returned to a healthy normal level
same,memory in passive avoidance test,[6],recovered memory
same,GFAP (astrocytes) in hippocampus,[7],decreased GFAP
same,animals died,"WT mouse (C57BL/6 mouse); C57BL/6, mouse, in vivo, ip, 300 mg/kg",about 50%
same,toxicity (death of animals),"WT mouse (C57BL/6 mouse); mouse, in vivo, ip, 1000 mg/kg",showed toxicity
same,lethal toxicity,"WT mouse (C57BL/6 mouse); single dose 100 mg/kg IP, C57BL/6 mouse",lethal toxicity was not shown
same,memory in passive avoidance test,APP/PS1 mouse [8]; 3 mg/kg/day IP for one week,maintained its memory similarly to the healthy normal mouse
same,memory in passive avoidance test,APP/PS1 mouse [8]; 10 mg/kg/day IP for one week,maintained its memory similarly to the healthy normal mouse
